From patent publication US6710055B2, “Disubstituted bicyclic heterocycles, the preparation thereof, and their use as pharmaceutical compositions” (Boehringer Ingelheim Pharma GmbH & Co., KG, priority 1997, dated 2004)
Like-named read-outs stand apart in the source and are kept apart here.

Assays:
Test thrombin (bovine) = target: T1, Test thrombin (bovine) (Bos taurus, UniProt P00735); assay: Thrombin time in human citrated plasma (Biomatic B10 coagulometer); assay type: biochemical
T1 construct: purchased Behring Werke, Marburg
Experimental: were investigated as follows for their effects on thrombin time:
Materials: plasma, from human citrated blood.
Test thrombin (bovine), 30U/mL, Behring Werke, Marburg
Diethylbarbiturate acetate buffer, ORWH 60/61, Behring Werke, Marburg
Biomatic B10 coagulometer, Sarstedt
The thrombin time was determined using a Biomatic B10 coagulometer made by Messrs. Sarstedt. As the test substance, 0.1 mL of human citrated plasma and 0.1 mL diethylbarbiturate buffer (DBA buffer) were added to the test strip prescribed by the manufacturer. The mixture was incubated for one minute at 37° C. The clotting reaction was started by the addition of 0.3 U test thrombin in 0.1 mL DBA buffer. The time is measured using the apparatus from the addition of the thrombin up to the clotting of the mixture. Mixtures to which 0.1 mL of DBA buffer were added were used as the controls.

thrombocyte aggregation = assay: Inhibitory effect on thrombocyte aggregation; assay type: cell-based
rats = conditions: doses of up to 10 mg/kg i.v.
[1] = concentration at which the thrombin time is double compared with the control, human citrated plasma, 0.3 U test thrombin (bovine), 37° C.

## CCOC(=O)CCN(c1ccccc1)S(=O)(=O)c1ccc2c(c1)nc(CNc1ccc(C(=N)N)cc1)n2C.Cl
other
  melting point: 188 to 191 °C

## N=C(N)c1ccc(NCc2nc3cc(C(=O)N(CCC(=O)O)c4ccccc4)ccc3s2)cc1 [A, 2-[N-(4-amidinophenyl)aminomethyl]benzthiazole-5-carboxylic acid-N-phenyl-N-(2-carboxyethyl)amide]
Test thrombin (bovine); [1]
  Thrombin time (ED200 in μM): 0.04 µM

## Cn1c(CCc2ccc(C(=N)N)cc2)nc2cc(C(=O)N(CCCC(=O)O)c3ccccc3)ccc21 [B, 1-methyl-2-[2-(4-amidinophenyl)ethyl]benzimidazol-5-yl-carboxylic acid-N-phenyl-N-(3-hydroxycarbonylpropyl)amide]
Test thrombin (bovine); [1]
  Thrombin time (ED200 in μM): 0.06 µM

## Cn1c(COc2ccc(C(=N)N)cc2)nc2cc(C(=O)N(CC(=O)O)c3ccccc3)ccc21 [C, 1-methyl-2-[(4-amidinophenyl)oxymethyl]benzimidazol-5-yl-carboxylic acid-N-phenyl-N-(hydroxycarbonylmethyl)amide]
Test thrombin (bovine); [1]
  Thrombin time (ED200 in μM): 0.15 µM

## Cn1c(CNc2ccc(C(=N)N)cc2)nc2cc(C(=O)N(CCC(=O)O)c3ccccc3)ccc21 [D, 1-methyl-2-[N-(4-amidinophenyl)aminomethyl]benzimidazol-5-yl-carboxylic acid-N-phenyl-N-(2-hydroxycarbonylethyl)amide]
Test thrombin (bovine)
  Thrombin time (ED200 in μM): 0.03 µM

## Cn1c(CNc2ccc(C(=N)N)cc2)nc2cc(C(=O)N(CC(=O)O)c3ccccn3)ccc21 [E, 1-methyl-2-[N-(4-amidinophenyl)aminomethyl]benzimidazol-5-yl-carboxylic acid-N-(2-pyridyl)-N-(hydroxycarbonylmethyl)amide]
Test thrombin (bovine); [1]
  Thrombin time (ED200 in μM): 0.09 µM

## CN(Cc1nc2cc(C(=O)N(CCC(=O)O)c3ccccc3)ccc2s1)c1ccc(C(=N)N)cc1.Cl [Example 16, 2-[N-(4-amidinophenyl)-N-methylaminomethyl]benzothiazol-5-yl-carboxyiic acid-N-phenyl-N-(2-hydroxycarbonylethyl)amide hydrochloride]
Thrombocyte aggregation
  inhibitory effect on thrombocyte aggregation: slight inhibitory effect

## Cn1c(CCc2ccc(C(=N)N)cc2)nc2cc(C(=O)N(CCc3nnn[nH]3)c3ccccc3)ccc21 [F, 1-methyl-2-[2-(4-amidinophenyl)ethyl]benzimidazol-5-yl-carboxylic acid-N-phenyl-N-[2-(1H-tetrazol-5-yl)ethyl]amide]
Test thrombin (bovine); [1]
  Thrombin time (ED200 in μM): 0.03 µM

## [H]/N=C(/N)c1ccc(NCc2nc3cc(C(=O)N(CCC(=O)O)c4ccccn4)ccc3n2C)cc1 [G, 1-methyl-2-[N-(4-amidinophenyl)aminomethyl]benzimidazol-5-yl-carboxylic acid-N-(2-pyridyl)-N-(2-hydroxycarbonylethyl)amide]
Test thrombin (bovine)
  Thrombin time (ED200 in μM): 0.03 µM
rats
  acute toxic side effects: no acute toxic side effects were observed
